According to patent US8518942B2, “Caspase inhibitors and uses thereof” (Buck Institute for Research on Aging, priority 2008, dated 2013):

Columns and labels:
Format in all cases: biochemical
[1] = target: T1, caspase-6 (Homo sapiens, UniProt P55212); experiment: Irreversible inhibitor kinetic assay (progress curve), caspase-6, substrate Ac-DEVD-AMC; conditions: casp-6; duplicate, SD included
T1 construct: gift: Guy Salvesen's laboratory, Burnham Institute (La Jolla, Calif.)
T1 sequence (P55212 24-179 limits assumed): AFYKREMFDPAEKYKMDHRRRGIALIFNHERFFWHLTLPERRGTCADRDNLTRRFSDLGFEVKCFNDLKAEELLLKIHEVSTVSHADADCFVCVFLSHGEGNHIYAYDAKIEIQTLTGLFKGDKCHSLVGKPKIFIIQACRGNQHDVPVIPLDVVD
T1 sequence (P55212 194-293 limits assumed): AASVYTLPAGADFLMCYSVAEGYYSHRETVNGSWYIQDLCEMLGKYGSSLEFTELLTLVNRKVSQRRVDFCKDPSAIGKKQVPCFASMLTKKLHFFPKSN
Text: (§1) Caspases-3, -6, -7, -8, and -9 were provided by Guy Salvesen's laboratory at the Burnham Institute (La Jolla, Calif.). Caspase-1 was purchased from EMD Biosciences (San Diego, Calif.) and Caspase-2 was purchased from Biomol International (Plymouth Meeting, Pa.). Caspase substrates Ac-DEVD-AMC, Ac-VDVAD-AFC, and Ac-LEHD-AFC were purchased from EMD Biosciences (San Diego, Calif.) and Ac-VDVAD-AMC was purchased from Biomol International (Plymouth Meeting, Pa.). The proteolytic cleavage of N-acyl aminocoumarins by caspases was conducted in Dynatech Microfluor fluorescence 96-well microtiter plates, and readings were taken on a Molecular Devices Spectra Max Gemini XS instrument. The excitation wavelength was 370 nm and the emission wavelength was 455 nm for AMCA substrates, the excitation wavelength was 355 nm and the emission wavelength was 450 nm for peptidyl AMC substrates, and the excitation wavelength was 430 nm and the emission wavelength was 535 nm for peptidyl AFC substrates.
(§2) The kinact/Ki for inhibitors were determined under pseudo-first order conditions using the progress curve method (Eckici et al. (2006) J. Med. Chem., 49: 5728-5749; Bieth (1995) Meth. Enzymol., 248: 59-84). Assay wells contained a mixture of inhibitor and AMC or AFC substrate in buffer. Aliquots of caspase were added to each well to initiate the assay. Hydrolysis of the AMC or AFC substrate was monitored fluorometrically for 45 min. To determine the inhibition parameters, time points for which the control ([I]=0) was linear were used. For each inhibitor, a kobs was calculated for at least four different concentrations of inhibitors via a nonlinear regression of the data according to the equation P=(vi/kobs)[1−exp(−kobst) (where product formation=P, […], and the first-order rate constant=kobs). If kobs varied linearly with [I], then the association constant kass was determined by linear regression analysis using kobs=(kass[I])/(1+[S]/Km) where [S] is the concentration of the substrate. […] Inhibition was measured in duplicate and the average of is reported. […]

[2] = target: T2, caspase-7 (Homo sapiens, UniProt P55210); experiment: Irreversible inhibitor kinetic assay (progress curve), caspase-7, substrate Ac-DEVD-AMC; conditions: casp-7; duplicate, SD included
T2 construct: gift: Guy Salvesen's laboratory, Burnham Institute (La Jolla, Calif.)
T2 sequence (P55210 24-198 limits assumed): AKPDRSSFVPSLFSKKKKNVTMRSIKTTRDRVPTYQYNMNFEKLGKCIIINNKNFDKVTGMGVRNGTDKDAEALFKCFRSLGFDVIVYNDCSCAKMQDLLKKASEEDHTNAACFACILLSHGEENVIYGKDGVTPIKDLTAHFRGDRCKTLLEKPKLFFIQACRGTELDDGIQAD
T2 sequence (P55210 207-303 limits assumed): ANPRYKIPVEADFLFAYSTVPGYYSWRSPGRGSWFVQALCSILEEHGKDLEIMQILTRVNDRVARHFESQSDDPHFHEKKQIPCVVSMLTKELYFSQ
Text: as §1, §2

[3] = target: T1, caspase-6; experiment: Blots of full-length huntingtin (23Q & 148Q) treated with caspase-6 plus inhibitor; conditions: for Proteolysis of Htt at amino acid 586 (caspase-6 site): 1-100 nM; for Inhibition of caspase-6 cleavage of full-length huntingtin (blot): 23Q & 148Q, at 1.0 μM and 10 μM; for Blocking the cleavage of Htt at amino acid 586 mediated by caspase-6: conclusion

SMILES	kinact/Ki [1]	kinact/Ki [2]	Proteolysis of Htt at amino acid 586 (caspase-6 site) [3]	Inhibition of caspase-6 cleavage of full-length huntingtin (blot) [3]	Blocking the cleavage of Htt at amino acid 586 mediated by caspase-6 [3]
C[C@@](NC(=O)CCCC(=O)O)(c1cn([C@@H](CC(=O)O)C(=O)COc2c(F)c(F)cc(F)c2F)nn1)C1CCCCC1 [MJL-002i]	32,950 ± 1,650 s^−1/M^−1	57,250 ± 1,550 s^−1/M^−1	blocked	inhibition	affective at blocking
C[C@@](NS(=O)(=O)Cc1ccccc1)(c1cn([C@@H](CC(=O)O)C(=O)COc2c(F)c(F)cc(F)c2F)nn1)C1CCCCC1 [MJL-001i]	23,100 ± 1,900 s^−1/M^−1	27,700 ± 2,000 s^−1/M^−1	blocked	inhibition	affective at blocking
C[C@@](NC(=O)Cc1ccccc1)(c1cn([C@@H](CC(=O)O)C(=O)COc2c(F)c(F)cc(F)c2F)nn1)C1CCCCC1 [MJL-003i]	45,750 ± 450 s^−1/M^−1	34,200 ± 3,800 s^−1/M^−1	blocked	inhibition	affective at blocking
